# Assay results taken from patent publication US12472185B2, “Methods for killing antibiotic tolerant bacteria” (THE PENN STATE RESEARCH FOUNDATION, priority 2020, dated 2025).
# Test system: E. coli persister cells
# Assay: ChemBridge screen for persister cell killing
# Type: cell-based, Escherichia coli
# Conditions: 100 μM, 24 hr
# Procedure: FIG. 1. […] Escherichia coli persister cells were treated for 24 hr at 100 μM with: • 1: N-(3,4-dichlorophenyl)-N′-(3-fluorophenyl) thiourea; • 2: 2-({2-[(4-bromophenyl)amino]-4-quinazolinyl}amino)ethanol hydrochloride; • 3: 2-[(6-phenyl-2,3,4,9-tetrahydro-1H-carbazol-1-yl)amino] ethanol; • 4: 1-(3,6-dichloro-9H-carbazol-9-yl)-3-(2-methyl-1H-imidazol-1-yl)-2-propanol; • 5: N-[2-(4-fluorophenyl)ethyl]-N′-(4-nitrophenyl) thiourea; • 6: N-(4-chlorobenzyl)-N′-4-pyridinylthiourea; • 7: N′-(3,5-dichloro-2-hydroxybenzylidene)-2-oxo-4-phenyl-3-pyrrolidinecarbohydrazide; and • 8: [(5-nitro-3-phenyl-1H-indol-2-yl)methyl]amine hydrochloride (NPIMA, structure shown in inset).
# To identify compounds that kill E. coli persister cells, 10,000 compounds of the DIVERset Library from ChemBridge (San Diego, CA) were tested by adding 4 μl of each (in DMSO, final concentration 100 μM) to 186 μl of LB in 96-well plates along with 10 μl of persister cells; the persister cells were added after the ChemBridge chemical since LB wakes persister cells (Kim, Yamasaki, et al., 2018). For the negative control, pure DMSO (final concentration 2 vol %) was used. The degree of inhibition was determined by the change in turbidity at 600 nm after 24 hr. The best 26 compounds were re-tested with the same conditions.
# To screen directly for killing persister cells, a high-throughput approach using 96-well microtiter plates was devised that consisted of (a) washing persister cells formed from exponentially-growing cells using rifampicin pretreatment followed by ampicillin treatment, (b) adding 10 μl of the persister cells to 190 μl of LB containing one each of the 10,000 compounds of the DiverSet library dissolved in dimethyl sulfoxide (100 μM final concentration), and (c) monitoring for growth via change in turbidity for 24 hr. With this approach, we allowed for up to a 140-fold change in turbidity (0.005 could be increased to 0.69).
smiles,measurement,setting,value
"Cl.NCc1[nH]c2ccc([N+](=O)[O-])cc2c1-c1ccccc1 [NPIMA, [(5-nitro-3-phenyl-1H-indol-2-yl)methyl]amine hydrochloride]",change of turbidity during first and second screen,,reduced the turbidity
same,"persister killing, second screen (FIG. 1)",hydrochloride,substantially more effective than the other compounds
same,"persister killing, second screen (FIG. 1)","listed as 8, hydrochloride",Most effective
